What was measured:
Assay in all cases: Test C pre/postemergence
Format in all cases: in vivo
[1] = system: Surinam grass (Brachiaria decumbens); conditions: for Surinam Grass plant response rating: scale 0 to 100 (0 no effect, 100 complete control)
Outline: (§1)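 Test compounds, formulated in a non-phytotoxic solvent mix with surfactant, were applied to freshly planted seeds and, at the same time, to emerged plants at 1- to 4-leaf stage (2 to 18 cm). After 12 to 14 days in the greenhouse, response was scored visually versus controls, 0 = no effect, 100 = complete control.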

[2] = system: cocklebur (Xanthium strumarium); conditions: for Cocklebur plant response rating: scale 0 to 100 (0 no effect, 100 complete control)
Outline: as §1

[3] = system: common (oilseed) sunflower (Helianthus annuus); conditions: Preemergence
Outline: as §1

[4] = system: crabgrass (Digitaria sanguinalis); conditions: for Crabgrass plant response rating: scale 0 to 100 (0 no effect, 100 complete control)
Outline: as §1

[5] = system: giant foxtail (Setaria faberii); conditions: for Foxtail, Giant plant response rating: scale 0 to 100 (0 no effect, 100 complete control)
Outline: as §1

[6] = system: johnsongrass (Sorghum halepense); conditions: for Johnsongrass plant response rating: scale 0 to 100 (0 no effect, 100 complete control)
Outline: as §1

kochia (Kochia scoparia) = conditions: for Kochia plant response rating: scale 0 to 100 (0 no effect, 100 complete control)
Outline: as §1

[7] = system: morningglory (Ipomoea coccinea); conditions: for Morningglory plant response rating: scale 0 to 100 (0 no effect, 100 complete control)
Outline: as §1

[8] = system: pigweed (Amaranthus retroflexus); conditions: for Pigweed plant response rating: scale 0 to 100 (0 no effect, 100 complete control)
Outline: as §1

[9] = system: velvetleaf (Abutilon theophrasti); conditions: for Velvetleaf plant response rating: scale 0 to 100 (0 no effect, 100 complete control)
Outline: as §1

[10] = system: woolly cupgrass (Eriochloa villosa); conditions: for Cupgrass, Woolly plant response rating: scale 0 to 100 (0 no effect, 100 complete control)
Outline: as §1

[11] = system: yellow nutsedge (Cyperus esculentus); conditions: for Nutsedge, Yellow plant response rating: scale 0 to 100 (0 no effect, 100 complete control)
Outline: as §1

[12] = Postemergence, 250 g ai/ha, scale 0 to 100
[13] = Preemergence, 31 g ai/ha, scale 0 to 100, 0 no effect, 100 complete control
[14] = Preemergence, 62 g ai/ha, scale 0 to 100, 0 no effect, 100 complete control
[15] = Preemergence, 125 g ai/ha, scale 0 to 100
[16] = Preemergence, 250 g ai/ha, scale 0 to 100

With `CC(C)COC(=O)c1nc(C2CC2)nc(N)c1Br` [Compound 17] the “Plant response rating (scale of 0 to 100), Surinam Grass” value ([1]; Postemergence, 31 g ai/ha) was 0, the “Surinam Grass plant response rating” value ([1]; Postemergence, 62 g ai/ha) was 0 and the “Surinam Grass plant response rating” value ([1]; Postemergence, 125 g ai/ha) was 0. The “Plant response rating, Surinam Grass” value [1, 12] was 0, the “Plant response rating, Surinam Grass” value [1, 13] was 0 and the “Plant response rating, Surinam Grass” value [1, 14] was 0. For the same compound, the “Plant response rating, Surinam Grass” value [1, 15] was 0, the “Plant response rating, Surinam Grass” value [1, 16] was 0 and the “Plant response rating (scale of 0 to 100), Cocklebur” value ([2]; Postemergence, 31 g ai/ha) was 95. The “Cocklebur plant response rating” value ([2]; Postemergence, 62 g ai/ha) was 100, the “Cocklebur plant response rating” value ([2]; Postemergence, 125 g ai/ha) was 100 and the “Plant response rating, Cocklebur” value [2, 12] was 100. The “Plant response rating, Cocklebur” value [2, 13] was 75, the “Plant response rating, Cocklebur” value [2, 14] was 90 and the “Plant response rating, Cocklebur” value [2, 15] was 95. For the same compound, the “Plant response rating, Cocklebur” value [2, 16] was 100, the “Plant response rating, Sunflower” value ([3]; 31 g ai/ha, scale 0 to 100, 0 no effect, 100 complete control) was 60 and the “Plant response rating, Sunflower” value ([3]; 62 g ai/ha, scale 0 to 100, 0 no effect, 100 complete control) was 95. The “Plant response rating, Sunflower” value ([3]; 125 g ai/ha, scale 0 to 100) was 100, the “Plant response rating, Sunflower” value ([3]; 250 g ai/ha, scale 0 to 100) was 100 and the “Plant response rating (scale of 0 to 100), Crabgrass” value ([4]; Postemergence, 31 g ai/ha) was 0. The “Crabgrass plant response rating” value ([4]; Postemergence, 62 g ai/ha) was 0, the “Crabgrass plant response rating” value ([4]; Postemergence, 125 g ai/ha) was 20 and the “Plant response rating, Crabgrass” value [4, 12] was 65. The “Plant response rating, Crabgrass” value [4, 13] was 0, the “Plant response rating, Crabgrass” value [4, 14] was 0 and the “Plant response rating, Crabgrass” value [4, 15] was 20. The “Plant response rating, Crabgrass” value [4, 16] was 80, the “Plant response rating (scale of 0 to 100), Foxtail, Giant” value ([5]; Postemergence, 31 g ai/ha) was 0 and the “Foxtail, Giant plant response rating” value ([5]; Postemergence, 62 g ai/ha) was 0. For the same compound, the “Foxtail, Giant plant response rating” value ([5]; Postemergence, 125 g ai/ha) was 0, the “Plant response rating, Foxtail, Giant” value [5, 12] was 35 and the “Plant response rating, Foxtail, Giant” value [5, 13] was 0. For the same compound, the “Plant response rating, Foxtail, Giant” value [5, 14] was 0, the “Plant response rating, Foxtail, Giant” value [5, 15] was 20 and the “Plant response rating, Foxtail, Giant” value [5, 16] was 75. The “Plant response rating (scale of 0 to 100), Johnsongrass” value ([6]; Postemergence, 31 g ai/ha) was 0, the “Johnsongrass plant response rating” value ([6]; Postemergence, 62 g ai/ha) was 0 and the “Johnsongrass plant response rating” value ([6]; Postemergence, 125 g ai/ha) was 40. The “Plant response rating, Johnsongrass” value [6, 12] was 60, the “Plant response rating, Johnsongrass” value [6, 13] was 0 and the “Plant response rating, Johnsongrass” value [6, 14] was 0. The “Plant response rating, Johnsongrass” value [6, 15] was 55, the “Plant response rating, Johnsongrass” value [6, 16] was 75 and the “Plant response rating (scale of 0 to 100), Kochia” value (kochia (Kochia scoparia); Postemergence, 31 g ai/ha) was 100. The “Kochia plant response rating” value (kochia (Kochia scoparia); Postemergence, 62 g ai/ha) was 100, the “Kochia plant response rating” value (kochia (Kochia scoparia); Postemergence, 125 g ai/ha) was 100 and the “Plant response rating, Kochia” value (kochia (Kochia scoparia); [12]) was 100. The “Plant response rating, Kochia” value (kochia (Kochia scoparia); [13]) was 0, the “Plant response rating, Kochia” value (kochia (Kochia scoparia); [14]) was 0 and the “Plant response rating, Kochia” value (kochia (Kochia scoparia); [15]) was 25. For the same compound, the “Plant response rating, Kochia” value (kochia (Kochia scoparia); [16]) was 85, the “Plant response rating (scale of 0 to 100), Morningglory” value ([7]; Postemergence, 31 g ai/ha) was 95 and the “Morningglory plant response rating” value ([7]; Postemergence, 62 g ai/ha) was 95. The “Morningglory plant response rating” value ([7]; Postemergence, 125 g ai/ha) was 100, the “Plant response rating, Morningglory” value [7, 12] was 100 and the “Plant response rating, Morningglory” value [7, 13] was 70. The “Plant response rating, Morningglory” value [7, 14] was 95, the “Plant response rating, Morningglory” value [7, 15] was 100 and the “Plant response rating, Morningglory” value [7, 16] was 100. The “Plant response rating (scale of 0 to 100), Pigweed” value ([8]; Postemergence, 31 g ai/ha) was 45, the “Pigweed plant response rating” value ([8]; Postemergence, 62 g ai/ha) was 65 and the “Pigweed plant response rating” value ([8]; Postemergence, 125 g ai/ha) was 75. For the same compound, the “Plant response rating, Pigweed” value [8, 12] was 95, the “Plant response rating, Pigweed” value [8, 13] was 95 and the “Plant response rating, Pigweed” value [8, 14] was 100. The “Plant response rating, Pigweed” value [8, 15] was 100, the “Plant response rating, Pigweed” value [8, 16] was 100 and the “Plant response rating (scale of 0 to 100), Velvetleaf” value ([9]; Postemergence, 31 g ai/ha) was 25. The “Velvetleaf plant response rating” value ([9]; Postemergence, 62 g ai/ha) was 50, the “Velvetleaf plant response rating” value ([9]; Postemergence, 125 g ai/ha) was 80 and the “Plant response rating, Velvetleaf” value [9, 12] was 95. The “Plant response rating, Velvetleaf” value [9, 13] was 20, the “Plant response rating, Velvetleaf” value [9, 14] was 80 and the “Plant response rating, Velvetleaf” value [9, 15] was 100. The “Plant response rating, Velvetleaf” value [9, 16] was 100, the “Plant response rating (scale of 0 to 100), Cupgrass, Woolly” value ([10]; Postemergence, 31 g ai/ha) was 0 and the “Cupgrass, Woolly plant response rating” value ([10]; Postemergence, 62 g ai/ha) was 0. The “Cupgrass, Woolly plant response rating” value ([10]; Postemergence, 125 g ai/ha) was 0, the “Plant response rating, Cupgrass, Woolly” value [10, 12] was 20 and the “Plant response rating, Cupgrass, Woolly” value [10, 13] was 0. For the same compound, the “Plant response rating, Cupgrass, Woolly” value [10, 14] was 0, the “Plant response rating, Cupgrass, Woolly” value [10, 15] was 20 and the “Plant response rating, Cupgrass, Woolly” value [10, 16] was 85. For the same compound, the “Plant response rating (scale of 0 to 100), Nutsedge, Yellow” value ([11]; Postemergence, 31 g ai/ha) was 0, the “Nutsedge, Yellow plant response rating” value ([11]; Postemergence, 62 g ai/ha) was 0 and the “Nutsedge, Yellow plant response rating” value ([11]; Postemergence, 125 g ai/ha) was 0. For the same compound, the “Plant response rating, Nutsedge, Yellow” value [11, 12] was 0, the “Plant response rating, Nutsedge, Yellow” value [11, 13] was 0 and the “Plant response rating, Nutsedge, Yellow” value [11, 14] was 0. The “Plant response rating, Nutsedge, Yellow” value [11, 15] was 0 and the “Plant response rating, Nutsedge, Yellow” value [11, 16] was 0.
